Experimental data: ChEMBL document CHEMBL2396566, “Development of a novel class of pyrrolo-[1,2,5]benzothiadiazepine derivatives as potential anti-schistosomal agents” (2013)

Tests used:
Type in all cases: functional
Schistosoma japonicum [1] = test: Antiparasitic activity against Schistosoma japonicum assessed as worm survival at 50 uM incubated for 16 hrs measured after 72 hrs
Schistosoma japonicum [2] = test: Antiparasitic activity against Schistosoma japonicum assessed as worm survival at 50 uM incubated for 16 hrs measured after 48 hrs
Schistosoma japonicum [3] = test: Antiparasitic activity against Schistosoma japonicum assessed as worm survival at 50 uM incubated for 16 hrs measured after 24 hrs
Schistosoma japonicum [4] = test: Antiparasitic activity against Schistosoma japonicum adult worm infected in ICR mouse assessed as worm reduction at 200 mg/kg, po administered for 3 days measured after 21 days; parameters: scale not given: the % may be the effect or the level left

## O=C(O)C1Nc2ccccc2S(=O)(=O)n2cccc21 (configuration not stated)
Schistosoma japonicum [1]
  survival at 50 µM: 100%
Schistosoma japonicum [2]
  survival at 50 µM: 100%
Schistosoma japonicum [3]
  survival at 50 µM: 100%

## CCOC(=O)C1Nc2ccccc2Sn2c(Br)ccc21 (configuration not stated)
Schistosoma japonicum [4]
  Activity: 12%
Schistosoma japonicum [1]
  survival at 50 µM: 66.7%
Schistosoma japonicum [2]
  survival at 50 µM: 100%
Schistosoma japonicum [3]
  survival at 50 µM: 100%

## CCOC(=O)C1Nc2ccccc2Sn2c(Cl)ccc21 (configuration not stated)
Schistosoma japonicum [4]
  Activity: 51.5%
Schistosoma japonicum [1]
  survival at 50 µM: 33.3%
Schistosoma japonicum [2]
  survival at 50 µM: 83.3%
Schistosoma japonicum [3]
  survival at 50 µM: 100%

## CCOC(=O)C1Nc2ccccc2[S+]([O-])n2cccc21 (configuration not stated)
Schistosoma japonicum [1]
  survival at 50 µM: 100%
Schistosoma japonicum [2]
  survival at 50 µM: 100%
Schistosoma japonicum [3]
  survival at 50 µM: 100%

## CCOC(=O)C1Nc2ccccc2Nn2cccc21 (configuration not stated)
Schistosoma japonicum [1]
  survival at 50 µM: 100%
Schistosoma japonicum [2]
  survival at 50 µM: 100%
Schistosoma japonicum [3]
  survival at 50 µM: 100%

## CCOC(=O)C1Nc2ccccc2N(C)n2cccc21 (configuration not stated)
Schistosoma japonicum [4]
  Activity: 34.8%
Schistosoma japonicum [1]
  survival at 50 µM: 83.3%
Schistosoma japonicum [2]
  survival at 50 µM: 100%
Schistosoma japonicum [3]
  survival at 50 µM: 100%

## CC1=Nc2ccccc2N(C)n2cccc21
Schistosoma japonicum [4]
  Activity: 24.2%
Schistosoma japonicum [1]
  survival at 50 µM: 83.3%
Schistosoma japonicum [2]
  survival at 50 µM: 100%
Schistosoma japonicum [3]
  survival at 50 µM: 100%

## CN1c2ccccc2N=Cc2cccn21
Schistosoma japonicum [4]
  Activity: 6.1%
Schistosoma japonicum [1]
  survival at 50 µM: 83.3%
Schistosoma japonicum [2]
  survival at 50 µM: 100%
Schistosoma japonicum [3]
  survival at 50 µM: 100%

## CCOC(=O)C1Nc2ccccc2Cn2cccc21 (configuration not stated)
Schistosoma japonicum [4]
  Activity: 74.2%
Schistosoma japonicum [1]
  survival at 50 µM: 83.3%
Schistosoma japonicum [2]
  survival at 50 µM: 100%
Schistosoma japonicum [3]
  survival at 50 µM: 100%

## O=C1Nc2ccccc2Sn2cccc21
Schistosoma japonicum [1]
  survival at 50 µM: 100%
Schistosoma japonicum [2]
  survival at 50 µM: 100%
Schistosoma japonicum [3]
  survival at 50 µM: 100%

## CCOC(=O)C1Nc2ccccc2Sn2cccc21 (configuration not stated)
Schistosoma japonicum [4]
  Activity: 4.5%
Schistosoma japonicum [1]
  survival at 50 µM: 16.7%
Schistosoma japonicum [2]
  survival at 50 µM: 66.7%
Schistosoma japonicum [3]
  survival at 50 µM: 100%

## CCOC(=O)C1Nc2ccccc2S(=O)(=O)n2cccc21 (configuration not stated)
Schistosoma japonicum [1]
  survival at 50 µM: 100%
Schistosoma japonicum [2]
  survival at 50 µM: 100%
Schistosoma japonicum [3]
  survival at 50 µM: 100%

## O=C(C1CCCCC1)N1CC(=O)N2CCc3ccccc3C2C1 (configuration not stated) [PRAZIQUANTEL]
Schistosoma japonicum [4]
  Activity: 96.9%
Schistosoma japonicum [1]
  survival at 50 µM: 33.3%
Schistosoma japonicum [2]
  survival at 50 µM: 33.3%
Schistosoma japonicum [3]
  survival at 50 µM: 66.7%
